# Counter-ions that a name gives are not always drawn.
# Tested on: not given
# Test: not given
# Details: Farmaco, Ed. Sci., 23, 1081 (1968); 24, 440 (1969); cited from earlier work
row,SMILES,anti-inflammatory effects
1,"CN(C)CCOc1noc2ccccc12 [Compound B, 3(2-N,NDimethylamino)ethoxy-1,2-benzisoxazole]",possesses anti-inflammatory effects

# Tested on: not given
# Test: not given
# Details: Farmaco, Ed. Sci., 23, 1081 (1968); 24, 440 (1969); cited from earlier work
# Remark: another data set of the same source
row,SMILES,local (infiltration) anaesthetic effect
1,"CN(C)CCOc1noc2ccccc12 [Compound B, 3(2-N,NDimethylamino)ethoxy-1,2-benzisoxazole]",local (infiltration) anaesthetic effect

# Molecular target: T1, B-type monoamine oxidase (Mus musculus, UniProt Q8BW75)
# T1 sequence (Q8BW75 1-520): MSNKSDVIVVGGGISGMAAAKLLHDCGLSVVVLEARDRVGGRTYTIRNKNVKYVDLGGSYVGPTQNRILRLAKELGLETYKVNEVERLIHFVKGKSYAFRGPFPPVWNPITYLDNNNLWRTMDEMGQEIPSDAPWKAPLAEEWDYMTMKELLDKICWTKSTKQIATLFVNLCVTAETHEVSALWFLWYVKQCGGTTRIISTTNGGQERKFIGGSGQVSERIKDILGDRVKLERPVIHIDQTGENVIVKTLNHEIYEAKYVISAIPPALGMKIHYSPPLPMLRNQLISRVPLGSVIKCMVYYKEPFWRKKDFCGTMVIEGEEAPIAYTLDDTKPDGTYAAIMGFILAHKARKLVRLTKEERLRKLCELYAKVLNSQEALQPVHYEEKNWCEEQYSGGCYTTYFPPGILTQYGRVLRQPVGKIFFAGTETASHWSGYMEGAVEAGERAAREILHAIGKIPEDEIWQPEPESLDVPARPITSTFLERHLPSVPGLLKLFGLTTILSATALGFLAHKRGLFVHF
# Test: Monoamine oxidase-inhibitory activity, B-type (crude mitochondria of mouse brain, 14C-2-phenylethylamine substrate)
# Type: biochemical
# Details: 14C-PEA 20 μM, pH 7.4, 38° C., 20 min preincubation
row,SMILES,IC50 [nM]
1,"NCCOc1noc2ncccc12 [10(e), 3-(2-Aminoethoxy)pyrido[3,2-d]isoxazole Dihydrochloride]",10.2
2,"NCCOc1noc2ncccc12 [10(f), 3-(2-Aminoethoxy)pyrido[3,2-d]isoxazole Hydrochloride]",13.5
3,"COc1ccc2onc(OCCN)c2c1 [Example 6, 3-(2-Aminoethoxy)-5-methoxy-1,2-benzisoxazole hydrochloride]",5.6
4,"NCCOc1noc2c(Cl)cccc12 [Example 9, 3-(2-Aminoethoxy)-7-chloro-1,2-benzisoxazole Hydrochloride]",20
5,"NCCOc1noc2c(Cl)cc(Cl)cc12 [Example 12, 3-(2-Aminoethoxy)-5,7-dichloro-1,2-benzisoxazole Hydrochloride]",26.5
6,"Cc1cccc2c(OCCN)noc12 [Example 13, 3-(2-Aminoethoxy)-7-methyl-1,2-benzisoxazole Hydrochloride]",27.5
7,"Cc1ccc2c(OCCN)noc2c1 [Example 14, 3-(2-Aminoethoxy)-6-methyl-1,2-benzisoxazole Hydrochloride]",21.5
8,"Cc1c(F)ccc2onc(OCCN)c12 [Example 17, 3-(2-Aminoethoxy)-5-fluoro-4-methyl-1,2-benzisoxazole Hydrochloride]",4.2
9,"CSc1c(F)ccc2onc(OCCN)c12 [Example 21, 3-(2-Aminoethoxy)-5-fluoro-4-methylthio-1,2-benzisoxazole Hydrochloride]",4.7
10,"N#Cc1cccc2onc(OCCN)c12 [Example 24, 3-(2-Aminoethoxy)-4-cyano-1,2-benzisoxazole hydrochloride]",6.8
11,"COc1ccc2onc(SCCN)c2c1 [Example 33, 3-(2-Aminoethylthio)-5-methoxy-1,2-benzisoxazole hydrochloride]",4.5
12,"NCCSc1noc2ccc([N+](=O)[O-])cc12 [Example 35, 3-(2-Aminoethylthio)-5-nitro-1,2-benzisoxazole hydrochloride]",9
13,"COC(=O)c1ccc2onc(OCCN)c2c1 [Example 42, 3-(2-Aminoethoxy)-5-methoxycarbonyl-1,2-benzisoxazole hydrochloride]",18
14,"NCCOc1noc2ccc(OC(F)F)cc12 [Example 44, 3-(2-Aminoethoxy)-5-difluoromethoxy-1,2-benzisoxazole hydrochloride]",6
15,"Cc1cc(Cl)cc2c(SCCN)noc12 [Example 56, 3-(2-Aminoethylthio)-5-chloro-7-methyl-1,2-benzisoxazole hydrochloride]",6.6

# Results, then the compound that gave them:
row,IC50 [nM],SMILES
1,0.37,"NCCOc1noc2ccc(Cl)cc12 [Example 1, 3-(2-Aminoethoxy)-5-chloro-1,2-benzisoxazole hydrochloride]"
2,1.85,"NCCOc1noc2ccccc12 [Example 2, 3-(2-Aminoethoxy)-1,2-benzisoxazole hydrochloride]"
3,1.35,"NCCOc1noc2ccc(F)cc12 [Example 5, 3-(2-Aminoethoxy)-5-fluoro-1,2-benzisoxazole hydrochloride]"
4,0.56,"Cc1ccc2onc(OCCN)c2c1 [Example 7, 3-(2-Aminoethoxy)-5-methyl-1,2-benzisoxazole Hydrochloride]"
5,0.56,"NCCOc1noc2ccc([N+](=O)[O-])cc12 [Example 8, 3-(2-Aminoethoxy)-5-nitro-1,2-benzisoxazole Hydrochloride]"
6,2.8,"NCCOc1noc2cc(Cl)ccc12 [Example 11, 3-(2-Aminoethoxy)-6-chloro-1,2-benzisoxazole Hydrochloride]"
7,0.32,"NCCOc1noc2ccc(Br)cc12 [Example 15, 3-(2-Aminoethoxy)-5-bromo-1,2-benzisoxazole Hydrochloride]"
8,2.7,"NCCSc1noc2ccc(F)cc12 [Example 26, 3-(2-Aminoethylthio)-5-fluoro-1,2-benzisoxazole hydrochloride]"
9,2.2,"Cc1ccc2onc(SCCN)c2c1 [Example 34, 3-(2-Aminoethylthio)-5-methyl-1,2-benzisoxazole hydrochloride]"
10,2.95,"NCCSc1noc2ccc(Cl)cc12 [Example 38, 3-(2-Aminoethylthio)-5-chloro-1,2-benzisoxazole hydrochloride]"

# Same assay, conditions: 14C-PEA 20 μM, pH 7.4, 38° C., reference compounds A and B
row,IC50 [nM],SMILES
1,2350,"CNCCOc1noc2ccccc12 [Compound A, 3(2-N-Methylamino)ethoxy-1,2-benzisoxazole, reference compound]"
2,4700,"CN(C)CCOc1noc2ccccc12 [Compound B, 3(2-N,NDimethylamino)ethoxy-1,2-benzisoxazole]"

# Reference: patent US6096771A, “Isoxazole derivatives” (Sankyo Company, Limited, priority 1994, dated 2000)
